The assay deals with T1, Cdc7 (BEV coexpressed huCDC7/DBF4) (Homo sapiens, UniProt O00311).
T1 construct: made in house; host or cells: BEV (baculovirus expression vector) co-expression; insect cells are implied but no cell line is named
T1 sequence (O00311 whole entry): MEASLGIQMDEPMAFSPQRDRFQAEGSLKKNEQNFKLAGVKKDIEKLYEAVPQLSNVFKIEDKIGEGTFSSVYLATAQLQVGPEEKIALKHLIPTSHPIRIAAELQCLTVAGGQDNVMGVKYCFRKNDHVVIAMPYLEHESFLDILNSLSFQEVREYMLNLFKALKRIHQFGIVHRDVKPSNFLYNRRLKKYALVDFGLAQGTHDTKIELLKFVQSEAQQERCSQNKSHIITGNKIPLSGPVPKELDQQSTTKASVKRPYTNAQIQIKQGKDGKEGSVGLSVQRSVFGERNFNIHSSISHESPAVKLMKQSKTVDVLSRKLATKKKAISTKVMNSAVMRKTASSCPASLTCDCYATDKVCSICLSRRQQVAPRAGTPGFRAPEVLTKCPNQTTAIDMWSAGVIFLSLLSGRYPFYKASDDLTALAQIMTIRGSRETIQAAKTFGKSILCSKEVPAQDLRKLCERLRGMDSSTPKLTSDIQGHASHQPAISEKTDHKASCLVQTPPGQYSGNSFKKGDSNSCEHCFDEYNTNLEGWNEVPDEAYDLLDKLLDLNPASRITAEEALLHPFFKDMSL
T1 sequence (Q9UBU7 whole entry partner): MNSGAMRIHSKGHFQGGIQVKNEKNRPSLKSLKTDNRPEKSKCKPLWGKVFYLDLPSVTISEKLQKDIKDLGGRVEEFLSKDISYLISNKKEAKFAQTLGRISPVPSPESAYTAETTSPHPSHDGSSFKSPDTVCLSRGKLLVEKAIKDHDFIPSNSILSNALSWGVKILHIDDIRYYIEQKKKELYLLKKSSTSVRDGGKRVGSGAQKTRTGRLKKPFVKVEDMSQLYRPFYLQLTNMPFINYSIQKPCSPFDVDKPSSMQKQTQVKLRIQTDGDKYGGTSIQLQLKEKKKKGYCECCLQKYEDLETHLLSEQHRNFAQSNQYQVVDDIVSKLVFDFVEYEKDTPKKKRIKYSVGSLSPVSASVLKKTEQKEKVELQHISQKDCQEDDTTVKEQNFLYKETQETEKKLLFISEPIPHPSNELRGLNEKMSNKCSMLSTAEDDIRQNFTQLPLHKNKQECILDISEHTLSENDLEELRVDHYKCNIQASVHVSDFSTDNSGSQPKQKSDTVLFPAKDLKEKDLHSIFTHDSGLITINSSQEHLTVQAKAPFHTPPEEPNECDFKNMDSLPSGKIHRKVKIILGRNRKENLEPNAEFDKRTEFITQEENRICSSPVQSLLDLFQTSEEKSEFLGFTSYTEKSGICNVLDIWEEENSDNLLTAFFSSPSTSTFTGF
Nature of the assay: Cdc7 enzyme inhibition assay ([33P]ATP, biotinylated peptide substrate, FlashPlate). It is filed as biochemical. The following applies: Table 3; enzyme inhibition data (Ki). How it is done:
Cdc7 (BEV coexpressed huCDC7/DBF4) is prepared internally. Cdc7 assays are conducted as follows with final concentrations as listed. […] Reactions are quenched after 1 hr by the addition of 90 μL stop buffer (50 mM EDTA, 2M NaCl). […] (Ki) for exemplary compounds.
A word on the Ki: it is a dissociation constant, usually derived from enzyme kinetics or from competition with a known ligand. Read a high Ki as weaker binding. Consider `Nc1cnc2[nH]cc(-c3cc(Cl)nc(NC4CCCCC4)c3)c2c1` [Example 225, 3-[2-chloro-6-(cyclohexylamino)pyridin-4-yl]-1H-pyrrolo[2,3-b]pyridin-5-amine], for which the Ki was < 10 nM. The value for `CC(=O)Nc1cnc2[nH]cc(-c3cc(Cl)nc(NC4CCCCC4)c3)c2c1` [Example 226, N-{3-[2-chloro-6-(cyclohexylamino)pyridin-4-yl]-1H-pyrrolo[2,3-b]pyridin-5-yl}acetamide] was < 10 nM. With `CNCC(=O)N[C@H]1CC[C@H](Nc2cc(-c3c[nH]c4ncc(OC)cc34)cc(Cl)n2)CC1` [Example 227, N-(trans-4-{[6-chloro-4-(5-methoxy-1H-pyrrolo[2,3-b]pyridin-3-yl)pyridin-2-yl]amino}cyclohexyl)-N^2-methylglycinamide], the Ki was < 10 nM. The value for `COc1cnc2[nH]cc(-c3cc(Cl)nc(N[C@H]4CC[C@H](NC(=O)C(C)C)CC4)c3)c2c1` [Example 228, N-(trans-4-{[6-chloro-4-(5-methoxy-1H-pyrrolo[2,3-b]pyridin-3-yl)pyridin-2-yl]amino}cyclohexyl)-2-methylpropanamide] was < 10 nM; that for `O=C(CN1CCN(c2ccc(F)cc2)CC1)N[C@H]1CC[C@H](Nc2cc(-c3c[nH]c4ncccc34)cc(Cl)n2)CC1` [Example 229, N-(trans-4-{[6-chloro-4-(1H-pyrrolo[2,3-b]pyridin-3-yl)pyridin-2-yl]amino}cyclohexyl)-2-[4-(4-fluorophenyl)piperazin-1-yl]acetamide] was < 10 nM.

`O=C(CN1CCN(c2ccncc2)CC1)N[C@H]1CC[C@H](Nc2cc(-c3c[nH]c4ncccc34)cc(Cl)n2)CC1` [Example 230, N-(trans-4-{[6-chloro-4-(1H-pyrrolo[2,3-b]pyridin-3-yl)pyridin-2-yl]amino}cyclohexyl)-2-[4-(pyridin-4-yl)piperazin-1-yl]acetamide]: the Ki was < 10 nM. Regarding `O=C(CN1CCN(C2CCCCC2)CC1)N[C@H]1CC[C@H](Nc2cc(-c3c[nH]c4ncccc34)cc(Cl)n2)CC1` [Example 231, N-(trans-4-{[6-chloro-4-(1H-pyrrolo[2,3-b]pyridin-3-yl)pyridin-2-yl]amino}cyclohexyl)-2-(4-cyclohexylpiperazin-1-yl)acetamide], the Ki is < 10 nM.

On to `CCCCN1CCN(CC(=O)N[C@H]2CC[C@H](Nc3cc(-c4c[nH]c5ncccc45)cc(Cl)n3)CC2)CC1` [Example 232, 2-(4-butylpiperazine-1-yl)-N-(trans-4-{[6-chloro-4-(1H-pyrrolo[2,3-b]pyridin-3-yl)pyridin-2-yl]amino}cyclohexyl)acetamide], for which the Ki was < 10 nM. For `O=C(CN1CCN(C(=O)c2ccco2)CC1)N[C@H]1CC[C@H](Nc2cc(-c3c[nH]c4ncccc34)cc(Cl)n2)CC1` [Example 233, N-(trans-4-{[6-chloro-4-(1H-pyrrolo[2,3-b]pyridin-3-yl)pyridin-2-yl]amino}cyclohexyl)-2-[4-(furan-2-ylcarbonyl)piperazin-1-yl]acetamide], the Ki is < 10 nM. The value for `N#Cc1ccccc1N1CCN(CC(=O)N[C@H]2CC[C@H](Nc3cc(-c4c[nH]c5ncccc45)cc(Cl)n3)CC2)CC1` [Example 234, N-(trans-4-{[6-chloro-4-(1H-pyrrolo[2,3-b]pyridin-3-yl)pyridin-2-yl]amino}cyclohexyl)-2-[4-(2-cyanophenyl)piperazin-1-yl]acetamide] was < 10 nM; that for `O=C(O)c1cnc2[nH]cc(-c3cc(Cl)nc(NC4CCCCC4)c3)c2c1` [Example 235, 3-[2-chloro-6-(cyclohexylamino)pyridin-4-yl]-1H-pyrrolo[2,3-b]pyridine-5-carboxylic acid] was < 10 nM; that for `COc1cnc2[nH]cc(-c3cc(Cl)nc(NC4CCC(C5CCNCC5)CC4)c3)c2c1` (stereo not shown) [Example 236, 6-chloro-4-(5-methoxy-1H-pyrrolo[2,3-b]pyridin-3-yl)-N-[4-(piperidin-4-yl)cyclohexyl]pyridin-2-amine] was < 10 nM. In the case of `COc1cnc2[nH]cc(-c3cc(Cl)nc(NC4CCC(CC5CCC(N)CC5)CC4)c3)c2c1` (stereo not shown) [Example 237, N-{4-[(4-aminocyclohexyl)methyl]cyclohexyl}-6-chloro-4-(5-methoxy-1H-pyrrolo[2,3-b]pyridin-3-yl)pyridin-2-amine], the Ki was < 10 nM.

Turning to `COc1cnc2[nH]cc(-c3cc(Cl)nc(NC4CCC(CC5CCC(NC6CCCCC6)CC5)CC4)c3)c2c1` (stereo not shown) [Example 238, 6-chloro-N-(4-{[4-(cyclohexylamino)cyclohexyl]methyl}cyclohexyl)-4-(5-methoxy-1H-pyrrolo[2,3-b]pyridin-3-yl)pyridin-2-amine], the Ki was < 10 nM. In the case of `Clc1cc(-c2c[nH]c3ncc(Nc4ccccc4)cc23)cc(NC2CCCCC2)n1` [Example 239, 3-[2-chloro-6-(cyclohexylamino)pyridin-4-yl]-N-phenyl-1H-pyrrolo[2,3-b]pyridin-5-amine], the Ki fell in the range of 10 to 100 nM. For `COc1cnc2[nH]cc(-c3cc(Cl)nc(NC4CCC(CC5CCC(NC(=O)C6CC6)CC5)CC4)c3)c2c1` (stereo not shown) [Example 240, N-[4-[(4-{[6-chloro-4-(5-methoxy-1H-pyrrolo[2,3-b]pyridin-3-yl)pyridin-2-yl]amino}cyclohexyl)methyl]cyclohexyl]cyclopropanecarboxamide], the Ki was < 10 nM. On to `C#CCOc1cnc2[nH]cc(-c3cc(Cl)nc(N[C@H]4CC[C@H](N)CC4)c3)c2c1` [Example 241, (trans)-N1-(6-chloro-4-(5-(prop-2-ynyloxy)-1H-pyrrolo[2,3-b]pyridin-3-yl)pyridin-2-yl)cyclohexane-1,4-diamine], for which the Ki was 10 to 100 nM. The value for `O=C(NCc1ccccn1)c1cnc2[nH]cc(-c3cc(Cl)nc(NC4CCCCC4)c3)c2c1` [Example 242, 3-[2-chloro-6-(cyclohexylamino)pyridin-4-yl]-N-(pyridin-2-ylmethyl)-1H-pyrrolo[2,3-b]pyridine-5-carboxamide] was < 10 nM; that for `Clc1cc(-c2c[nH]c3ncc(-c4cncnc4)cc23)cc(NC2CCCCC2)n1` [Example 243, 6-chloro-N-cyclohexyl-4-[5-(pyrimidin-5-yl)-1H-pyrrolo[2,3-b]pyridin-3-yl]pyridin-2-amine] was < 10 nM. The value for `CCCCS(=O)(=O)N[C@H]1CC[C@H](Nc2cc(-c3c[nH]c4ncc(OC)cc34)cc(Cl)n2)CC1` [Example 244, N-(trans-4-{[6-chloro-4-(5-methoxy-1H-pyrrolo[2,3-b]pyridin-3-yl)pyridin-2-yl]amino}cyclohexyl)butane-1-sulfonamide] was < 10 nM; that for `Nc1ccc(-c2cnc3[nH]cc(-c4cc(Cl)nc(NC5CCCCC5)c4)c3c2)cn1` [Example 245, 4-[5-(6-aminopyridin-3-yl)-1H-pyrrolo[2,3-b]pyridin-3-yl]-6-chloro-N-cyclohexylpyridin-2-amine] was < 10 nM; that for `COc1cnc2[nH]cc(-c3cc(Cl)nc(N[C@H]4CC[C@H](NC(=O)CN)CC4)c3)c2c1` [Example 246, N-(trans-4-{[6-chloro-4-(5-methoxy-1H-pyrrolo[2,3-b]pyridin-3-yl)pyridin-2-yl]amino}cyclohexyl)glycinamide] was < 10 nM.

For the compound `COc1ccnc2[nH]cc(-c3cc(Cl)nc(NC4CCCCC4)c3)c12` [Example 247, 6-chloro-N-cyclohexyl-4-(4-methoxy-1H-pyrrolo[2,3-b]pyridin-3-yl)pyridin-2-amine], the Ki was < 10 nM. The value for `CCNC(=O)Nc1cnc2[nH]cc(-c3cc(Cl)nc(NC4CCCCC4)c3)c2c1` [Example 248, 1-{3-[2-chloro-6-(cyclohexylamino)pyridin-4-yl]-1H-pyrrolo[2,3-b]pyridin-5-yl}-3-ethylurea] was < 10 nM. Consider `O=C(N[C@H]1CC[C@H](Nc2cc(-c3c[nH]c4ncccc34)cc(Cl)n2)CC1)C1CN(Cc2ccncc2)C1` [Example 249, N-(trans-4-{[6-chloro-4-(1H-pyrrolo[2,3-b]pyridin-3-yl)pyridin-2-yl]amino}cyclohexyl)-1-(pyridin-4-ylmethyl)azetidine-3-carboxamide], for which the inhibition constant Ki is < 10 nM. The value for `O=C(N[C@H]1CC[C@H](Nc2cc(-c3c[nH]c4ncccc34)cc(Cl)n2)CC1)C1CN(C2CCNCC2)C1` [Example 250, N-(trans-4-{[6-chloro-4-(1H-pyrrolo[2,3-b]pyridin-3-yl)pyridin-2-yl]amino}cyclohexyl)-1-(piperidin-4-yl)azetidine-3-carboxamide] was < 10 nM; that for `COc1cnc2[nH]cc(-c3cc(Cl)nc(N[C@H]4CC[C@H](NC(=O)CNC5CCCCC5)CC4)c3)c2c1` [Example 251, N-(trans-4-{[6-chloro-4-(5-methoxy-1H-pyrrolo[2,3-b]pyridin-3-yl)pyridin-2-yl]amino}cyclohexyl)-N^2-cyclohexylglycinamide] was < 10 nM. On to `COc1cnc2[nH]cc(-c3cc(Cl)nc(NC4CCC(C5CCN(C6CCC6)CC5)CC4)c3)c2c1` (stereo not shown) [Example 252, 6-chloro-N-[4-(1-cyclobutylpiperidin-4-yl)cyclohexyl]-4-(5-methoxy-1H-pyrrolo[2,3-b]pyridin-3-yl)pyridin-2-amine], for which the Ki was < 10 nM. Turning to `COc1cnc2[nH]cc(-c3cc(Cl)nc(N[C@H]4CC[C@H](NS(=O)(=O)C5CCCCC5)CC4)c3)c2c1` [Example 253, N-(trans-4-{[6-chloro-4-(5-methoxy-1H-pyrrolo[2,3-b]pyridin-3-yl)pyridin-2-yl]amino}cyclohexyl)cyclohexanesulfonamide], the Ki was < 10 nM. The value for `COc1cnc2[nH]cc(-c3cc(Cl)nc(N[C@H]4CC[C@H](NC(=O)CN5CCOCC5)CC4)c3)c2c1` [Example 254, N-(trans-4-{[6-chloro-4-(5-methoxy-1H-pyrrolo[2,3-b]pyridin-3-yl)pyridin-2-yl]amino}cyclohexyl)-2-(morpholin-4-yl)acetamide] was < 10 nM; that for `CC(=O)Nc1cccc(-c2cnc3[nH]cc(-c4cc(Cl)nc(NC5CCCCC5)c4)c3c2)c1` [Example 255, N-(3-{3-[2-chloro-6-(cyclohexylamino)pyridin-4-yl]-1H-pyrrolo[2,3-b]pyridin-5-yl}phenyl)acetamide] was < 10 nM.

These data come from patent US8435980B2 (AbbVie Inc., priority 2009, dated 2013).
